Laboratory results from patent publication US9206200B2, “N-linked lactam M1 receptor positive allosteric mogulators” (Merck Sharp & Dohme Corp., priority 2011, dated 2015).

Biological target: T1, acetylcholine muscarinic M1 receptor (Homo sapiens, UniProt P11229)
T1 construct: expressed in transfected cells; host or cells: CHOnfat cells (CHO cells with an NFAT reporter) expressing hM1, kept under Geneticin selection
T1 sequence (P11229 1-460): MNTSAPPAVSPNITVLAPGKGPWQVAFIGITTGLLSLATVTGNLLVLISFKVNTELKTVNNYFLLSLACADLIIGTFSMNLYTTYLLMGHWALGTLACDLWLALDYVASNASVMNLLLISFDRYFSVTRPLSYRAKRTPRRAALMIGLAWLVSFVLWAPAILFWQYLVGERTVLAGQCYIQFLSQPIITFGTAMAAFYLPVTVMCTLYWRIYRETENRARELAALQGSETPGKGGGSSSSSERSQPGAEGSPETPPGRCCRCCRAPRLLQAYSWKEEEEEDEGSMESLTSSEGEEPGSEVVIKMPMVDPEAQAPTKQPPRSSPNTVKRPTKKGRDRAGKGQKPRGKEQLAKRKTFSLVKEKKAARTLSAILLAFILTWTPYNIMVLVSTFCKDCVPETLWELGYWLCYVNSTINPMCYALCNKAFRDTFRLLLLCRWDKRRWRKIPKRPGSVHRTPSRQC
Experiment: muscarinic FLIPR assay: intracellular calcium in CHOnfat/hM1 cells, potentiation of EC20 acetylcholine
Format: cell-based
Details: Table 2; CHOnfat/hM1 cells, FLIPR, EC20 acetylcholine (3 nM final); read-out: M1 Pot.
How it was run: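 CHOnfat cells stably expressing human M1, Fluo-4AM-loaded, in HBSS with 20 mM HEPES, 2.5 mM probenecid, 1% BSA. Compounds preincubated 4 min (printed "4 mM") before an EC20 acetylcholine challenge (3 nM final). FLIPR intracellular Ca²⁺ signal compared with 3 nM acetylcholine alone to detect potentiation.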

| Compound | EC50 |
| --- | --- |
| CC1c2c(cc(CN3CCC(C#N)(c4ccccc4)CC3)c3cccnc23)C(=O)N1C1CCCCC1O (stereo not drawn) [Example 137, 1-{[8-(2-hydroxycyclohexyl)-9-methyl-7-oxo-8,9-dihydro-7H-pyrrolo[3,4-h]quinolin-5-yl]methyl}-4-phenylpiperidine-4-carbonitrile] | 480 nM |
| CC1c2c(cc(CN3CCC(C#N)(c4ccccc4)CC3)c3cccnc23)C(=O)N1C1CCCCC1O (stereo not drawn) [Example 138, 1-{[8-(2-hydroxycyclohexyl)-9-methyl-7-oxo-8,9-dihydro-7H-pyrrolo[3,4-h]quinolin-5-yl]methyl}-4-phenylpiperidine-4-carbonitrile] | 69 nM |
| O=C1c2cc(CN3CCC(O)(c4ccncc4)CC3)c3cccnc3c2CN1C1CCCCC1O (stereo not drawn) [Example 144, 8-(2-hydroxycyclohexyl)-5-[(4-hydroxy-4-pyridin-4-ylpiperidin-1-yl)methyl]-8,9-dihydro-7H-pyrrolo[3,4-h]quinolin-7-one] | 510 nM |
| N#CC1(c2ccccn2)CCN(Cc2cc3c(c4ncccc24)CN([C@H]2CCCC[C@@H]2O)C3=O)CC1 [Example 145, 1-({8-[(1S,2S)-2-hydroxycyclohexyl]-7-oxo-8,9-dihydro-7H-pyrrolo[3,4-h]quinolin-5-yl}methyl)-4-pyridin-2-ylpiperidine-4-carbonitrile] | 7.6 nM |
| Cc1ccnc(C2(C#N)CCN(Cc3cc4c(c5ncccc35)CN(C3CCCCC3O)C4=O)CC2)c1 (stereo not drawn) [Example 148, 1-{[8-(2-hydroxycyclohexyl)-7-oxo-8,9-dihydro-7H-pyrrolo[3,4-h]quinolin-5-yl]methyl}-4-(4-methylpyridin-2-yl)piperidine-4-carbonitrile] | 4.7 nM |

The remaining lines, values ahead:

| EC50 | Compound |
| --- | --- |
| 85 nM | O=C1c2cc(CN3CCC(c4ccccc4)CC3)c3cccnc3c2CN1C1CCCCC1O (stereo not drawn) [Example 139, 8-(2-hydroxycyclohexyl)-5-[(4-phenylpiperidin-1-yl)methyl]-8,9-dihydro-7H-pyrrolo[3,4-h]quinolin-7-one] |
| 3200 nM | CC1c2c(cc(CN3CCC(c4ccccc4)CC3)c3cccnc23)C(=O)N1C1CCCCC1O (stereo not drawn) [Example 140, 8-(2-hydroxycyclohexyl)-9-methyl-5-[(4-phenylpiperidin-1-yl)methyl]-8,9-dihydro-7H-pyrrolo[3,4-h]quinolin-7-one] |
| 490 nM | CC1c2c(cc(CN3CCC(c4ccccc4)CC3)c3cccnc23)C(=O)N1C1CCCCC1O (stereo not drawn) [Example 141, 8-(2-hydroxycyclohexyl)-9-methyl-5-[(4-phenylpiperidin-1-yl)methyl]-8,9-dihydro-7H-pyrrolo[3,4-h]quinolin-7-one] |
| 51 nM | O=C1c2cc(CN3CCC(c4ccncc4)CC3)c3cccnc3c2CN1C1CCCCC1O (stereo not drawn) [Example 142, 8-(2-hydroxycyclohexyl)-5-[(4-pyridin-4-ylpiperidin-1-yl)methyl]-8,9-dihydro-7H-pyrrolo[3,4-h]quinolin-7-one] |
| 89 nM | CC1c2c(cc(CN3CCC(c4ccncc4)CC3)c3cccnc23)C(=O)N1C1CCCCC1O (stereo not drawn) [Example 143, 8-(2-hydroxycyclohexyl)-9-methyl-5-[(4-pyridin-4-ylpiperidin-1-yl)methyl]-8,9-dihydro-7H-pyrrolo[3,4-h]quinolin-7-one] |
| 11 nM | O=C1c2cc(CN3CCC(F)(c4ccccn4)CC3)c3cccnc3c2CN1C1CCCCC1O (stereo not drawn) [Example 146, 5-[(4-fluoro-4-pyridin-2-ylpiperidin-1-yl)methyl]-8-(2-hydroxycyclohexyl)-8,9-dihydro-7H-pyrrolo[3,4-h]quinolin-7-one] |
| 70 nM | CC1c2c(cc(CN3CCC(F)(c4ccccn4)CC3)c3cccnc23)C(=O)N1[C@@H]1CCCC[C@@H]1O (stereo partly drawn) [Example 147, 5-[(4-fluoro-4-pyridin-2-ylpiperidin-1-yl)methyl]-8-[(1R,2S)-2-hydroxycyclohexyl]-9-methyl-8,9-dihydro-7H-pyrrolo[3,4-h]quinolin-7-one] |
